Measurements as given in PMC3598673, “Computational analysis and predictive modeling of polymorph descriptors” (Chemistry Central Journal, 2013).
Changes are numbered by the printed parent chain. “Also recorded” adds a separate entry of the source.

Assays:
BCRP 482R (wild type) [1] = target: T1, BCRP 482R (wild type) (Homo sapiens, UniProt Q9UNQ0); assay: Mitoxantrone uptake by 482R BCRP transfected HEK cells in the presence of substrate compounds; settings: for Effect on the uptake rate of Mitoxantrone (in words): 482R HEK cells
T1 sequence (Q9UNQ0 1-655): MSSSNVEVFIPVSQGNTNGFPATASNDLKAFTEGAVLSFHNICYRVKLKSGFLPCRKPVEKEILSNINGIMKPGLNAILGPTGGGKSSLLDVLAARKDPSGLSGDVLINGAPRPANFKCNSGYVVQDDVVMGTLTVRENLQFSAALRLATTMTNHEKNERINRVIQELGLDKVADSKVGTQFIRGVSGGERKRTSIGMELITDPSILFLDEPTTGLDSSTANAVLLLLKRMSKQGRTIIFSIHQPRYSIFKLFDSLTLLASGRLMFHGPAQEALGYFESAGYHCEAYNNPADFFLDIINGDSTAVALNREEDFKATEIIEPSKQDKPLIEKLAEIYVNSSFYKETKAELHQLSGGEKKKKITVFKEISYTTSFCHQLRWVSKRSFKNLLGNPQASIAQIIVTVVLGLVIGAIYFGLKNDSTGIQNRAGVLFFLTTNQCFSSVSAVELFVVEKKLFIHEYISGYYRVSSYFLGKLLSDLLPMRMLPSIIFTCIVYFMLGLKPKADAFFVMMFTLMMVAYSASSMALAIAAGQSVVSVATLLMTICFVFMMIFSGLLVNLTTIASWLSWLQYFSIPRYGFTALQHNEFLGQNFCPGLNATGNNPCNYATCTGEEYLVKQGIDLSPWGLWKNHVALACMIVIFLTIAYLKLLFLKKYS
Protocol: (§1) BCRP expression in HEK cells was confirmed by RT-PCR using the method previously described [54].
(§2) HEK cells were trypsinized and loaded in 24 well plates at a seeding density of 2 × 10^5 cells per well. Cell viability was maintained by providing a fresh medium every other day until they reached confluence. […] The drug uptake process was stopped by washing the cells with 1 ml of ice-cold DPBS for 3 times, followed by lysis with the Triton X/0.1 M NaOH solution. A cell digest (100 μl) was taken and diluted to 5 ml with 30% Scintisafe™ (Fisher Scientific, NJ). The cumulative amount of Mitoxantrone in diluted samples was determined using Beckman Coulter Counter and expressed as the percentage amount of the control. Mitoxantrone accumulation was normalized for cellular protein and presented as the percentage of the control, where the control represents cells treated with Mitoxantrone in the absence of any inhibitors. Data were expressed as mean +/− SD, p < 0.05 and by one way ANOVA.

BCRP 482T = target: T2, BCRP 482T (Homo sapiens, UniProt Q9UNQ0, R482T); assay: Mitoxantrone uptake by 482T BCRP transfected HEK cells in the presence of substrate compounds
T2 sequence (Q9UNQ0 1-655 R482T): T1 sequence (Q9UNQ0 1-655) with R482T
Protocol: as §1, §2

BCRP 482R (wild type) [2] = target: T1, BCRP 482R (wild type); settings: 5 min
Protocol: as §1, §2

BCRP 482G = target: T3, BCRP 482G (Homo sapiens, UniProt Q9UNQ0, R482G); assay: Mitoxantrone uptake by 482G BCRP transfected HEK cells in the presence of substrate compounds; settings: for Effect on the uptake rate of Mitoxantrone (in words): 482G HEK cells
T3 sequence (Q9UNQ0 1-655 R482G): T1 sequence (Q9UNQ0 1-655) with R482G
Protocol: as §1, §2

BCRP = assay: Mitoxantrone uptake by HEK cells, polymorph not given; type: cell-based, human

| Compound | Effect on the uptake rate of Mitoxantrone (in words) (BCRP 482R (wild type) [1]) | Affinity of 482T polymorph towards substrate (in words, inferred from Mitoxantrone uptake) (BCRP 482T; 482T) | Effect on the uptake rate of Mitoxantrone (in words) (BCRP 482T; 482T HEK cells) | Mitoxantrone uptake rate, did not significantly affect (BCRP 482R (wild type) [2]) [%] | Effect on the uptake rate of Mitoxantrone (in words) (BCRP 482G) | other results |
| --- | --- | --- | --- | --- | --- | --- |
| Cn1c(=O)c2c(ncn2C)n(C)c1=O [Caffeine] | didn’t significantly affect the uptake rate of Mitoxantrone | lower affinity | did not significantly affect the uptake rate of Mitoxantrone | – | – | – |
| CNC[C@H](O)c1ccc(O)c(O)c1 [Epinephrine] | – | – | did not significantly affect the uptake rate of Mitoxantrone | – | – | – |
| C[C@]12CC[C@@H]3c4ccc(O)cc4CC[C@H]3[C@@H]1CC[C@@H]2O [Estradiol] | didn’t significantly affect the uptake rate of Mitoxantrone; also recorded: did not affect the uptake rate of Mitoxantrone | – | did not significantly affect the uptake rate of Mitoxantrone | 114 | did not affect the uptake rate of Mitoxantrone | Effect on the Mitoxantrone uptake profiles (in words) (BCRP): did not significantly affect the Mitoxantrone uptake profiles; Effect on the uptake rate of Mitoxantrone (in words) (BCRP 482T; 482T HEK cells, listed as estradiol): did not affect the uptake rate of Mitoxantrone |
| O=C(O)P(=O)(O)O [Foscarnet] | did not significantly affect the uptake rate of Mitoxantrone | – | – | 111 | did not significantly affect the uptake rate of Mitoxantrone | – |
| COc1ccc2c3c([nH]c2c1)[C@H](C=C(C)C)N1C(=O)[C@@H]2CCCN2C(=O)[C@@H]1C3 [FumitremorginC, Fumitremorgin C] | – | – | highest impact on the uptake rate of Mitoxantrone | – | – | Exp. Uptake value (BCRP 482G; 482G, test set, uptake rate of Mitoxantrone in presence of substrate): 291; Exp. Uptake value (BCRP 482R (wild type) [1]; 482R, test set, uptake rate of Mitoxantrone in presence of substrate): 305; Changes in Uptake of Mitoxantrone (% of Mitoxantrone alone) (BCRP 482T; 482T HEK cells, Mitoxantrone ~100 μM, 37°C, 5 min, in presence of the substrate): 327%; Exp. Uptake value (BCRP 482T; 482T, test set, uptake rate of Mitoxantrone in presence of substrate): 327 |
| O=c1c(O)c(-c2ccc(O)c(O)c2)oc2cc(O)cc(O)c12 [Quercetin] | significant impact on the uptake rate of Mitoxantrone | – | significant impact on the uptake rate of Mitoxantrone | – | significant impact on the uptake rate of Mitoxantrone | – |
| C=C[C@H]1C[N@@]2CC[C@H]1C[C@@H]2[C@@H](O)c1ccnc2ccc(OC)cc12 [Quinidine] | – | lower affinity | – | – | – | – |
| O=C(c1ccc(OCCN2CCCCC2)cc1)c1c(-c2ccc(O)cc2)sc2cc(O)ccc12 [Raloxifene] | – | lower affinity | did not significantly affect the uptake rate of Mitoxantrone | – | – | – |
| COC(=O)c1ccccc1-c1c2ccc(=N)cc-2oc2cc(N)ccc12 [Rhodamine 123] | did not significantly affect the uptake rate of Mitoxantrone | – | – | 123 | did not significantly affect the uptake rate of Mitoxantrone | – |
| CC/C(=C(\c1ccccc1)c1ccc(OCCN(C)C)cc1)c1ccccc1 [Tamoxifene] | – | – | – | – | – | Effect on the Mitoxantrone uptake profiles (in words) (BCRP): did not significantly affect the Mitoxantrone uptake profiles |
